From patent US9233995B2, “Quinazoline derivatives and quinazoline complex protein kinase inhibitor for inhibiting multiplication of tumor cells and preparation method thereof” (INSTITUTE OF CHEMISTRY, CHINESE ACADEMY OF SCIENCES, priority 2010, dated 2016)
Where two headings read alike, the source gives them in different places.

Legend:
[1] = target: T1, EGFR (Epidermal Growth Factor Receptor) (Homo sapiens, UniProt P00533); experiment: Enzyme-linked immunosorbent assay (ELISA), kinase inhibitory activity (phosphorylation of PTP1B(Tyr66) biotinylated peptide substrate); type: biochemical; settings: average of two independent parallel experiments
T1 construct: purchased CST
Text: Protein kinase assay kit: PTP1B(Tyr66) Biotinylated Peptide from CST company is used as a substrate of kinase EGFR (Epidermal Growth Factor Receptor).

[2] = Solubility (physicochemical properties, Table 1); settings: room temperature, atmospheric pressure
[3] = test system: human breast cancer cell line (sensitive) MCF-7/S + EGF; experiment: Cytotoxicity experiment under the condition of additional EGF, SRB method; type: cell-based; settings: MCF-7/S with additional EGF 100 ng/ml, 48 h, SRB, read-out: IC50 (umol/L) Breast cancer cell (sensitive) MCF-7/S + EGF
Procedure: Human breast cancer cell line (sensitive) MCF-7/S and human non-small cell lung cancer cell line A549 are cultured in HAM′S/F-12 medium (HyClone, USA) containing 10 wt % fetal bovine serum (FBS, Hyclone, USA), and 100 ng/ml epidermal growth factor (EGF, Sigma, USA) is added to this medium. Cells described above were purchased from Cell Resource Center, Shanghai Institute for Biological Science, CAS, they are placed in a CO2 incubator and used for the experiment 3-5 days later.
(§1) Wherein, for experiment on compound cytotoxicity assay by sulforhodamine B (SRB) method: Cells in the logarithmic growth phase are collected and inoculated at 96-well plates (6500 cells/well/100 ul, RPMI1640 containing 100 ng/ml of EGF). After incubation for 24 h, compounds at gradient concentrations (200, 100, 50, 25, 12.5, 6.25, 1 (μM/L)) are added. The same volume of RPMI1640 containing 100 ng/ml of EGF is used as control group of the experiment; the blank group is only culture medium without cell. Three parallel wells are set up for each concentration group. After incubation is continued for 48 h, the cell survival rate is measured by SRB method. 50 μl 10% trichloroacetic acid (TCA) pre-cooled (4° C.) is added to each well, it is fixed for 1 hour at 4° C., washed with water for five times, and completely dried, and then 100 μl of SRB solution (Sigma, USA) at concentration of 0.4% by weight is added, and staining is performed at 37° C. in the dark for 30 min. Wash with acetic acid at a concentration of 1% by weight for 4-5 times, dry in the air, add 200 μl of Tris solution (10 mM, pH 10.5), after sufficiently dissolved, the absorbance (absorption wavelength is 570 nm) is measured in microplate reader.
(§2) The growth inhibition rate (IR) is calculated according to the following formula: IR (%)=[1−(experiment group A value−blank group A value)/(control group A value−blank group A value)]×100%, and the IC50 value is calculated using Origin 6.0 software.

[4] = Stability (physicochemical properties, Table 1); settings: for Stability (photostability): light
[5] = test system: human non-small cell lung cancer cell line A549; experiment: Cytotoxicity experiment, SRB method, tumor cell proliferation; type: cell-based; settings: A549, 48 h, read-out: IC50 (μmol/L) Non-small cell lung cancer cell A549
Procedure: (§3) Human breast cancer cell line (drug-resistant) MCF-7/A, human breast cancer cell line (sensitive) MCF-7/S, prostate cancer cell PC-3, keratinocyte Colo-16, human non-small cell lung cancer cell line A549 and etc. are cultured in RPMI1640 medium (Invitrogen, USA) containing 10 wt % fetal bovine serum (FBS, Hyclone, USA), and epidermal growth factor (EGF) at a concentration of 100 ng/ml is added to stimulate growth. After 2-3 days, cells in logarithmic growth phase are collected, and inoculated at 96 well plates (6500 cells/well/100 ul, RPMI1640 containing 100 ng/mL EGF) for 24 h, and then compound at gradient concentrations (200, 100, 50, 25, 12.5, 6.25, 1 μM/L) are added. The same volume of RPMI1640 containing 1 wt % of dimethyl sulfoxide (DMSO) is used as control group of the experiment; the blank group is only culture medium without cell. Three parallel wells are set up for each concentration group. After incubation is continued for 48 h, the cell survival rate is measured by SRB method. Results are shown in Table 2 and Table 3, respectively.
as §1, §2

keratinocyte Colo-16 = experiment: as above; type: cell-based; settings: Colo-16, 48 h, SRB, read-out: IC50 (μmol/L) Keratinocyte Colo-16
Procedure: as §3, §1, §2

[6] = test system: Human breast cancer cell line (drug-resistant) MCF-7/A; experiment: as above; type: cell-based; settings: 48 h, read-out: IC50 (umol/L) Breast cancer cell (drug-resistant) MCF-7/A
Procedure: as §3, §1, §2

[7] = test system: human breast cancer cell line (sensitive) MCF-7/S; experiment: as above; type: cell-based; settings: 48 h, read-out: IC50 (umol/L) Breast cancer cell (sensitive) MCF-7/S
Procedure: as §3, §1, §2

[8] = test system: prostate cancer cell PC-3; experiment: as above; type: cell-based; settings: PC-3, 48 h, SRB; read-out: IC50 (μmol/L) Prostate cancer cell PC-3
Procedure: as §3, §1, §2

T1 sequence (P00533 25-1210): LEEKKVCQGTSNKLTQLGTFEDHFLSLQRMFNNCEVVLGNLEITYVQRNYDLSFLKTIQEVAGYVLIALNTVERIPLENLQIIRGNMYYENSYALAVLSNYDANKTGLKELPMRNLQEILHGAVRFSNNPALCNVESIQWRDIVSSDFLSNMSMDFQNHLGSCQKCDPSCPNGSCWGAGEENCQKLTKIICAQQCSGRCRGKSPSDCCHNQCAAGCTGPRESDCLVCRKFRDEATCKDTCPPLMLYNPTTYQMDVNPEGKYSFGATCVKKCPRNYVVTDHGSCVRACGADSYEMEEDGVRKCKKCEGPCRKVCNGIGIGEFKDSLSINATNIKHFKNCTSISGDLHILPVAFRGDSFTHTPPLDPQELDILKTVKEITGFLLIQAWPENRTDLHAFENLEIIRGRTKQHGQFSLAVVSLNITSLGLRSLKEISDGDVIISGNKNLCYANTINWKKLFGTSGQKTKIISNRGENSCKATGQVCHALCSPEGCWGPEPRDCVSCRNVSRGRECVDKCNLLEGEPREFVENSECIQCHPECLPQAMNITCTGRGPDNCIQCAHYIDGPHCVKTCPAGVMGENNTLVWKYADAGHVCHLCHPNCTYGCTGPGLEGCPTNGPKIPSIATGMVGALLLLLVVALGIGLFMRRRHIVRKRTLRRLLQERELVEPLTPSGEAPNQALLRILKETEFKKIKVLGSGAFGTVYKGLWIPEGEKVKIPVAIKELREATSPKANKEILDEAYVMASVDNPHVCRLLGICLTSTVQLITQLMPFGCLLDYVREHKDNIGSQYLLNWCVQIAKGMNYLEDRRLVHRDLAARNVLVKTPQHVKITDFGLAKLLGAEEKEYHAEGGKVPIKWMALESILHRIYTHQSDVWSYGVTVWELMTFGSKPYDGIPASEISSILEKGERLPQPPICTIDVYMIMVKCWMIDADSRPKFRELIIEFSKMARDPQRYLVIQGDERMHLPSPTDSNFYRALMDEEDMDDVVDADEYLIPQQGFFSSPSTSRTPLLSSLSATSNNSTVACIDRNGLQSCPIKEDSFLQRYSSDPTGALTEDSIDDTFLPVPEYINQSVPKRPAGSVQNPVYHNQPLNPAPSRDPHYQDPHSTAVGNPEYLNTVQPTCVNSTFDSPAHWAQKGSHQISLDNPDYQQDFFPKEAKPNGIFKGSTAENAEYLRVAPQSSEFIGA

COc1cc2ncnc(Nc3ccc(F)c(Cl)c3)c2cc1OCCCNCCN [ZW1002, 6-(3-(2-aminoethylamino)propoxy)-4-(3-Chloro-4-fluoro-phenylamino)-7-methoxy quinazoline]
IC50 [1]: 0.0072 µM
Solubility in DMSO [2]: Highly soluble in DMSO
Solubility in methanol and ethanol [2]: soluble in water, soluble in methanol
Solubility in water [2]: slightly
IC50 ([3]; Homo sapiens, MCF7S): 15.9 ± 1.15 µmol/L
Stability (in air) [4]: Stable in air,
Stability (photostability) [4]: photostable
IC50 ([5]; Homo sapiens): 57.4 ± 1.98 µmol/L
IC50 (keratinocyte Colo-16; Keratinocyte): 14.5 ± 0.37 µmol/L
IC50 ([6]; Homo sapiens, MCF7a): > 100 µmol/L
IC50 ([7]; Homo sapiens, MCF7S): 16.4 ± 0.62 µmol/L
IC50 [8]: 13.6 ± 0.85 µmol/L

COc1cc2ncnc(Nc3ccc(F)c(Cl)c3)c2cc1OCC[N]1CC[NH][Ru+]1([Cl])[c]1cc(C(C)C)ccc1C.F[P-](F)(F)(F)(F)F (stereo not drawn) [ZW2001]
IC50 [1]: 0.081 µM
Solubility in DMSO [2]: Highly soluble in DMSO
Solubility in methanol and ethanol [2]: soluble in water, soluble in methanol
Solubility in water [2]: slightly
IC50 [3]: 56.1 ± 2.66 µmol/L
Stability (in air) [4]: Stable in air,
Stability (photostability) [4]: photostable
IC50 [5]: > 100 µmol/L
IC50 (keratinocyte Colo-16): 42.8 ± 2.46 µmol/L
IC50 [6]: > 100 µmol/L
IC50 [7]: > 100 µmol/L
IC50 [8]: > 100 µmol/L

COc1cc2ncnc(Nc3ccc(F)c(Cl)c3)c2cc1OCCC[N]1CC[NH][Ru+]1([Cl])[c]1cccc(-c2ccccc2)c1.F[P-](F)(F)(F)(F)F (stereo not drawn) [ZW2006]
IC50 [1]: 0.0762 µM
Solubility in DMSO [2]: Highly soluble in DMSO
Solubility in methanol and ethanol [2]: soluble in water, soluble in methanol
Solubility in water [2]: slightly
IC50 [3]: 21.7 ± 7.44 µmol/L
Stability (in air) [4]: Stable in air,
Stability (photostability) [4]: photostable
IC50 [5]: > 100 µmol/L
IC50 (keratinocyte Colo-16): 55.8 ± 1.55 µmol/L
IC50 [6]: > 100 µmol/L
IC50 [7]: 48.8 ± 7.82 µmol/L
IC50 [8]: 43.8 ± 3.9 µmol/L
